Results reported in US9937115B2, “Oral care compositions with improved flavor” (priority 2010, dated 2018).
Structures can show the parent of a compound that is named as a salt. Where two headings read alike, the source gives them in different places. Residues, ends and D or L forms follow the SMILES beside them.

Biological target: T1, TRPA1 receptor (Homo sapiens, UniProt O75762)
T1 construct: expressed in transfected cells; host or cells: HEK cell line
Test: cell-based
Design: activation: dose or concentration left out as unconfirmed
Protocol: The term “TRPA1 activator” as used herein refers to any component which at a concentration of 1 mM gives a calcium flux count of at least 1000 counts above the background level of calcium present in the cell according to the FLIPR method as discussed herein. The term “count” is defined as the change in fluorescence of the transfected cell lines due to the influx of calcium across the cell membrane, which reacts with the calcium sensitive dye present within the cells.
In order to select TRPA1 agonists that would be preferred for reducing off-tasting chemical components found in oral care compositions, calcium flux receptor activity on the TRPA1 was utilized as the criteria for selection of actives. With allyl isothiocyanate as the TRPA1 positive control, molecules that directly activated the TRPA1 receptor were screened in dimethylsulfoxide (DMSO). Pure molecules of each material were dissolved in DMSO at a concentration of 100 micormolar and then added to an HEK cell line containing the TRPA1 receptor. If they are TRPA1 agonists, they will cause a calcium flux in the cell which fluoresces and may then be measured using a FLIPR machine.

[1] = HEK293, percentage of the control (allyl isothiocyanate) calcium count, material dissolved in DMSO at 100 micromolar, HEK cells with TRPA1, direct addition, read-out: TRPA1 Direct addition
[2] = HEK293, percentage of the control (allyl isothiocyanate) calcium count, material dissolved in DMSO at 100 micromolar, HEK cells with TRPA1, pre-incubation, read-out: TRPA1 Pre-incubation
[3] = HEK293, read-out: TRPA1 Direct addition
[4] = HEK293, read-out: TRPA1 Pre-incubation
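For TRPA1 Pre-incubation in this document: values above 100 mean more active than the control.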

T1 sequence (O75762 whole entry): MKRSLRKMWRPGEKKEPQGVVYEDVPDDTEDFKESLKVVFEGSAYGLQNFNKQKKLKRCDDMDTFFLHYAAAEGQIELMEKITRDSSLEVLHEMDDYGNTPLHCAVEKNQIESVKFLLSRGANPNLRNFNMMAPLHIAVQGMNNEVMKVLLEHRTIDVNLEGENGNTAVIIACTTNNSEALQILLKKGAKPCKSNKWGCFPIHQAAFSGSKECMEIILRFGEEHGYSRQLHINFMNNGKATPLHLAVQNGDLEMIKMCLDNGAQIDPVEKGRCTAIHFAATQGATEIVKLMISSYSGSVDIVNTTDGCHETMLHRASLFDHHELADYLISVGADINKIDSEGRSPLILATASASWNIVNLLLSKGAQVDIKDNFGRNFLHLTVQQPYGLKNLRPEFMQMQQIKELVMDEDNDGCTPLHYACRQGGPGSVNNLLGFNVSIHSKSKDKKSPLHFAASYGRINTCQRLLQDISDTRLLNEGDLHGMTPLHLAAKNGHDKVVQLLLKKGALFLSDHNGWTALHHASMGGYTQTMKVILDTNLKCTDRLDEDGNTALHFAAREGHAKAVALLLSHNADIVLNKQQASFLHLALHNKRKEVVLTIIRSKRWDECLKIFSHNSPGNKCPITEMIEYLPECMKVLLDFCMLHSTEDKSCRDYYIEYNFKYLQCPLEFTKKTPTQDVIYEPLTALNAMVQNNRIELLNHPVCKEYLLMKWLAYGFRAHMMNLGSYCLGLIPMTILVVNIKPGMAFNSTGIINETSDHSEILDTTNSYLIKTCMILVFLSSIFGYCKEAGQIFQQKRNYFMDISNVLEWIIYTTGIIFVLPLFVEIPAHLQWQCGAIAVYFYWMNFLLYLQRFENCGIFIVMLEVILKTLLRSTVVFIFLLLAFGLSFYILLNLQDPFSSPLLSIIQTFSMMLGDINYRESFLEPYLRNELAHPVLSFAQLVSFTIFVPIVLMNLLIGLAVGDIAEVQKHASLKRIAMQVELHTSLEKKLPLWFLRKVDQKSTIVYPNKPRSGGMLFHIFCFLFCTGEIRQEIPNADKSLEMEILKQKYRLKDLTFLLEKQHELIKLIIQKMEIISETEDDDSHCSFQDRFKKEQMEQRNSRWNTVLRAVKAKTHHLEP

Molecule	activation at 100 µM [1] [%]	activation [2] [%]	other results
COc1cc(C)cc(OC)c1O [4-Methyl-2,6-Dimethoxyphenol]	45.9	9.25	
CCCCCCOC(=O)C(C)CC (stereo not shown) [Hexyl-2-Methylbutyrate]	-0.38	67.1	
CCCCCCOC(C)=O [Hexyl Acetate]	-0.01	49.1	
CCc1cnccn1 [2-Ethylpyrazine]	-1.56	49.9	
CC(C)CCO [Isoamyl Alcohol]			activation [3]: -0.15%; activation [4]: 70.9%
O=C(C=Cc1ccccc1)OCc1ccccc1 [Benzyl Cinnamate]		81.1	activation [1]: -2.39%
Methyl Ionone			TRPA1 Direct addition: 38.43%; TRPA1 Pre-incubation: −1.32%
CC(=O)c1ccccc1 [Acetophenone]	0.64	81.1	
CC(C)C(=O)OCCc1ccccc1 [Phenylethyl Isobutyrate]	-3.56	63.9	
CC/C=C\CCCCC=O [cis-6-Nonenal]	2.76	74.7	
CC(C)CC=C(C=O)c1ccccc1 [5-Methyl-2-Phenyl-2-Hexenal]			activation [3]: 132%; activation [4]: -11.7%
CC(=O)OCc1ccccc1 [Benzyl Acetate]	-0.31	74.5	
C=CCOC(=O)CCCCC [Allyl Hexanoate]	0.75	88.1	
C=Cc1ccc(O)c(OC)c1 [2-Methoxy-4-Vinylphenol]	1.16	71.4	
CC1(C)C2CCC1(C)C(O)C2 (stereo not shown) [Borneol]	-1.6	51	
COc1cc(/C=C/C(=O)O)ccc1O [Trans-Ferulic Acid]	-2.53	85.6	
C=C1CCC2CC1C2(C)C (stereo not drawn) [Beta-Pinene]	-6.02	73.6	
CC1OCCC1=O (stereo not shown) [2-Methyltetrahydrofuran-3-one]	-1.5	77.5	
2-Methybutyl Isovalerate			TRPA1 Direct addition: −1.49%; TRPA1 Pre-incubation: 69.9%
Cc1cnc(C)c(C)n1 [2,3,5-Trimethyl-pyrazine]	-1.13	48.8	
CC(C)CC(=O)OCC=Cc1ccccc1 [Cinnamyl Isovalerate]	-0.43	49.7	
CC1=CC(=O)[N-]S(=O)(=O)O1.[K+] [Acesulfame K]			TRPA1 Direct addition: −0.12%; TRPA1 Pre-incubation: 95.57%
CCC(=O)OCc1ccccc1 [Benzyl Propionate]	0.52	63	
CC(=O)OC(C)(C)Cc1ccccc1 [Alpha, Alpha Dimethylphenethyl Acetate]	-3.2	72	
CCCCCC/C=C\CO [cis-2-nonen-1-ol]	-1.09	79.2	
O=C(c1ccccc1)C(O)c1ccccc1 (stereo not shown) [Benzoin]	-0.5	56.2	
OCCc1ccccc1 [Phenyl Ethyl Alcohol]	-4.77	55	

Molecule	activation at 100 µM [1] [%]	activation [2] [%]	other results
CCCCCCOC(=O)CCCCC [Hexyl Hexanoate]	0.07	67.4	
CCC(=O)OC/C=C(\C)CCC=C(C)C [Geranyl Propionate]	0.09	47.9	
CCCCCCCCCCCC(C)=O [2-Tridecanone]	7.21	60.8	
CC(=O)OCC(C)C [Isobutyl Acetate]	-0.23	95.7	
CCCC(=O)C(C)=O [2,3-Hexanedione]	-0.19	101	
COC(=O)/C=C/c1ccccc1 [Methyl trans-Cinnamate]	-16.8	69.4	
OC/C=C/c1ccccc1 [Cinnamic Alcohol]	-1.45	84	
Cc1ncsc1CCO [4-Methyl-5-Thiazoleethanol]	0.56	72.8	
CCCCCCCCCC(C)C=O (stereo not shown) [2-Methylundecanal]	0.82	79.8	
O=C(OCc1ccccc1)c1ccccc1 [Benzyl Benzoate]	53.9	18.9	
CC(=O)OC1CCCCC1 [Cyclohexyl Acetate]	-1.27	68.8	
CSCCCO [3-(Methylthio) Propanol]	-0.92	73.1	
CC(C)=CC=O [3-Methyl-2-Butenal]	34.4	66.3	
c1ccc2scnc2c1 [Benzothiazole]	-2.29	81.5	
CC(=O)C(C)O (stereo not shown) [Acetoin]	0.29	82.6	
O=COCc1ccccc1 [Benzyl Formate]		75.3	activation [1]: -3.01%
CCCCOC(=O)CCC [Butyl Butyrate]	-0.66	62.3	
Cc1nccnc1C [2,3-Dimethylpyrazine]	-1.77	62.6	
CCCCCCCCCC(C)=O [Material 2-Undecanone, 2-Undecanone]	10.7	65.9	
CC(=O)O [Acetic Acid]			activation [3]: 0.27%; activation [4]: 68.5%
Cc1occc(=O)c1O [Maltol]	-2.79	102	
CC(C)=CCCC(C)=CCCC(C)=CCO [Farnesol]	0.1	56.6	
CCCCCCC(C)O (stereo not shown) [Material 2-Octanol, 2-Octanol]	-14.1	55.3	
OCCCc1ccccc1 [3-Phenyl-1-Propanol]	-0.04	92.2	
CCCCCCCCCCCC(=O)OCC [Ethyl Laurate]	0.12	75.8	
CCC/C=C/COC(C)=O [Trans-2-Hexenyl Acetate]	-0.32	68.7	
O=C([O-])C(=O)[O-].[Zn+2] [Zinc Oxalate]			TRPA1 Direct addition: 40.18%; TRPA1 Pre-incubation: 18.11%

Molecule	activation at 100 µM [1] [%]	activation [2] [%]	other results
COc1cccc(OC)c1O [2,6-Dimethoxyphenol]	-0.24	71.6	
CCC=C1OC(=O)c2ccccc21 [3-Propylidenephthalide]	116	6.21	
CCCCCC/C=C/CO [Trans-2-Nonen-1-ol]	-0.49	115	
CC=CC(=O)C(C)CC (stereo not shown) [5-Methyl-2-Hepten-4-one]	15.5	87.8	
CC1=CCC(C(C)C)=CC1 [Gamma-Terpinene]	0.21	61.5	
CC(=O)OCCC(C)C [Isoamyl Acetate]	0.07	41	
CCCCCOC(=O)CCC [Amyl Butyrate]	-2.64	75.9	
C=C1C2CCC(C2)C1(C)C (stereo not shown) [Camphene]	-1.43	96.5	
C=CCOC(=O)c1ccccc1N [Allyl anthranilate]	0.29	99.5	
CCCCC(O)CC (stereo not shown) [Material 3-Heptanol, 3-Heptanol]	-1.06	81.3	
O=Cc1ccco1 [Furfural]	-0.15	69	
CC(C)=CCCC(C)CCOC=O (stereo not shown) [Citronellyl Formate]	-0.57	89.5	
O=Cc1ccccc1O [Salicylaldehyde]	0.01	62.5	
CC(=O)c1cc(C)sc1C [3-Acetyl-2,5-Dimethylthiophene]	5.75	64.4	
[O]=[Zn] [Zinc Oxide]			TRPA1 Direct addition: −3.73%; TRPA1 Pre-incubation: 71.09%
Cn1cccc1C=O [1-Methylpyrrole-2-carboxaldehyde]	-3.47	-1.04	
CCCCC(=O)OCC [Ethyl Valerate]	-0.08	101	
COC(=O)[C@H](Cc1ccccc1)NC(=O)[C@@H](N)CC(=O)O [Aspartame] (H-Asp-Phe-OMe)	-2.15	80	
CCCCCCCCCCCCO [Lauryl Alcohol]	-0.86	50.5	
CCc1ccccc1S [2-Ethylthiophenol]	0.34	5.23	
CCC(C)COC(C)=O (stereo not shown) [2-Methylbutyl Acetate]	-0.99	60.3	
CCC=C(C)C(=O)O [2-Methyl-2-Pentenoic Acid]	-1.27	73.8	
CC(=O)OCCc1ccccc1 [Phenylethyl Acetate]	-22.5	93.8	
CCCCOC(=O)CC [Butyl Propionate]	-0.32	53.4	
CCOC(=O)C(C)O (stereo not shown) [Ethyl Lactate]	-0.14	67.4	
CC(=O)OCCc1scnc1C [4-Methyl-5-Thiazoleethanol Acetate]	0.62	76.4	
